Measurements from ChEMBL document CHEMBL4043290, “Structure-based Design of Pyridone-Aminal eFT508 Targeting Dysregulated Translation by Selective Mitogen-activated Protein Kinase Interacting Kinases 1 and 2 (MNK1/2) Inhibition” (J Med Chem, 2018).
One block for each compound: values may come before it.

Legend:
[1] = biological target: MAP kinase-interacting serine/threonine-protein kinase 2 (Homo sapiens, UniProt Q9HBH9)
[2] = biological target: MAP kinase-interacting serine/threonine-protein kinase 1/2 (Homo sapiens, UniProt Q9HBH9+Q9BUB5)
[3] = Metabolic stability in mouse liver microsomes assessed as parent compound remaining at 1 uM after 30 mins by LC-ESI-TOF/MS method; type: ADME, microsome; details: read-out: Stability
[4] = Oral bioavailability in cynomolgus monkey at 3 mg/kg by LC-ESI-TOF/MS or LC-ESI-MS/MS method; type: ADME, organism-based, Macaca fascicularis; details: in vivo
[5] = Oral bioavailability in Balb/c mouse at 10 mg/kg by LC-ESI-TOF/MS or LC-ESI-MS/MS method; type: ADME, organism-based; details: in vivo
[6] = Metabolic stability in rat liver microsomes assessed as parent compound remaining at 1 uM after 30 mins by LC-ESI-TOF/MS method; type: ADME, microsome; details: read-out: Stability
[7] = biological target: MAP kinase-interacting serine/threonine-protein kinase 1 (Homo sapiens, UniProt Q9BUB5)
MAP kinase-interacting serine/threonine-protein kinase 1, sequence (Q9BUB5 whole entry): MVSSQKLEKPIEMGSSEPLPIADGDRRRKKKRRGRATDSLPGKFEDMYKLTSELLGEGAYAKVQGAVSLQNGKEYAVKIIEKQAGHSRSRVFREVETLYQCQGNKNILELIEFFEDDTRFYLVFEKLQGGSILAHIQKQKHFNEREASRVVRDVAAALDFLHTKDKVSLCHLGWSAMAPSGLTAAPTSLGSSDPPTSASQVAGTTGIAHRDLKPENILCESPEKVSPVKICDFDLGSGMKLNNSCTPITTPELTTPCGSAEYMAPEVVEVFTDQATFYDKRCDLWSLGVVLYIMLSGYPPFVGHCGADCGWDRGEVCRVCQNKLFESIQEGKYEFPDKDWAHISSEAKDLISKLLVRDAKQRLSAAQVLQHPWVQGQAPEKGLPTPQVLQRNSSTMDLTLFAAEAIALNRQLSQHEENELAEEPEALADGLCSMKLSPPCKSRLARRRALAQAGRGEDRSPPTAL

[8] = Oral bioavailability in Sprague-Dawley rat at 10 mg/kg by LC-ESI-TOF/MS or LC-ESI-MS/MS method; type: ADME, organism-based; details: in vivo
[9] = Oral bioavailability in Beagle dog at 3 mg/kg by LC-ESI-TOF/MS or LC-ESI-MS/MS method; type: ADME, organism-based, Canis lupus familiaris; details: in vivo
[10] = Metabolic stability in human liver microsomes assessed as parent compound remaining at 1 uM after 30 mins by LC-ESI-TOF/MS method; type: ADME, microsome; details: read-out: Stability
[11] = biological target: T1, Serine/threonine-protein kinase 17A (Homo sapiens) (UniProt Q9UEE5); assay: Inhibition of DRAK1 (unknown origin) at 1 uM relative to control
T1 sequence (whole entry): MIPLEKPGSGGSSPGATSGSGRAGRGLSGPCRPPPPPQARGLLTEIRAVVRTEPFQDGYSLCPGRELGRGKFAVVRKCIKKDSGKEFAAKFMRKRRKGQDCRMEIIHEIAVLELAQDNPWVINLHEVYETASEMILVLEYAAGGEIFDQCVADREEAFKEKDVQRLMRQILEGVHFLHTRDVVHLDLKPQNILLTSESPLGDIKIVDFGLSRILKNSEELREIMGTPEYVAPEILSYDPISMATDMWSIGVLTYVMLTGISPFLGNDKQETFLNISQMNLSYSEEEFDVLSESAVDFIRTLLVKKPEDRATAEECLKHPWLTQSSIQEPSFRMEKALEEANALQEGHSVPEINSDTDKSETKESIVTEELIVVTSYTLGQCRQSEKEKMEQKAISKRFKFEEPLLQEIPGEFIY

[12] = test system: HCT-116; assay: Antiproliferative activity against human HCT116 cells after 72 hrs by CellTiter-Glo assay; type: functional, cell-based; details: HCT-116, 72 h
[13] = test system: SW-620; assay: Antiproliferative activity against human SW620 cells after 72 hrs by CellTiter-Glo assay; type: functional, cell-based; details: SW-620, 72 h
[14] = biological target: Vascular endothelial growth factor receptor 2 (Homo sapiens) (UniProt P35968); assay: Inhibition of KDR (unknown origin) at 1 uM relative to control
Vascular endothelial growth factor receptor 2 (Homo sapiens), sequence (P35968 whole entry): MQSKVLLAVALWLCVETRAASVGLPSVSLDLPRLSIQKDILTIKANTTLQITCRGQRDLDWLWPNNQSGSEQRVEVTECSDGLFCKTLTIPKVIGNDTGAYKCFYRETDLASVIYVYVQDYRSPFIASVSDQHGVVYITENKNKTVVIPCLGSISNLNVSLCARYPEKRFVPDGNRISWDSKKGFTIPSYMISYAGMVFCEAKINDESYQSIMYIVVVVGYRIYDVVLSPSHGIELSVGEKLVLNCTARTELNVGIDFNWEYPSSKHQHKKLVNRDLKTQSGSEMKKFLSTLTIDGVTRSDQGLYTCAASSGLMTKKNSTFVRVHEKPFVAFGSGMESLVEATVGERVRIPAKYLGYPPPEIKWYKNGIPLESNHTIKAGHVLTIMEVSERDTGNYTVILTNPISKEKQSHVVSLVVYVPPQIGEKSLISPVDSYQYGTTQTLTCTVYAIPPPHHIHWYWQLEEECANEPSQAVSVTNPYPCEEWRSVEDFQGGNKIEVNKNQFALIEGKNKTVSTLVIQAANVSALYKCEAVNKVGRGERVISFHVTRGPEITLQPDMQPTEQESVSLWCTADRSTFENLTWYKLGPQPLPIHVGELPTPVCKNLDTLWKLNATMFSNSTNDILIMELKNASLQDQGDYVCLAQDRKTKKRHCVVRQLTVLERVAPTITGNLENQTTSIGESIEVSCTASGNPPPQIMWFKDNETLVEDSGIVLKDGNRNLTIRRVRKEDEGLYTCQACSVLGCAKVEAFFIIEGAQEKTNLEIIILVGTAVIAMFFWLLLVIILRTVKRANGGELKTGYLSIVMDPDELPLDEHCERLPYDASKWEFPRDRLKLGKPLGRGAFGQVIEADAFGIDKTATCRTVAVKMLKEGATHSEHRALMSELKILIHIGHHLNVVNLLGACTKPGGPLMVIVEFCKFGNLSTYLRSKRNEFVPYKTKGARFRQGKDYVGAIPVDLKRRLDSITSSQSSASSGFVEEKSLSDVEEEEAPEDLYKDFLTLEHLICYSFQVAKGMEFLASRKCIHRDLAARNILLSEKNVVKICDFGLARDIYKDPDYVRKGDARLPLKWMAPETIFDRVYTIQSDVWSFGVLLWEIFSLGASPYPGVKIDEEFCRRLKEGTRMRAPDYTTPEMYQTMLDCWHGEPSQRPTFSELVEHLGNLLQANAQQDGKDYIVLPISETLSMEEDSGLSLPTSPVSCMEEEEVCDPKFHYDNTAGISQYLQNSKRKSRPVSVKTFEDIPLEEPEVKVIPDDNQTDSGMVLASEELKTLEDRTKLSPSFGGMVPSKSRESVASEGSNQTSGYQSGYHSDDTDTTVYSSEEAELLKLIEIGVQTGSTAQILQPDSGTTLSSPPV

[15] = test system: PC-3; assay: Antiproliferative activity against human PC3 cells after 72 hrs by CellTiter-Glo assay; type: functional, cell-based; details: PC-3, 72 h
[16] = biological target: Proto-oncogene tyrosine-protein kinase receptor Ret (Homo sapiens) (UniProt P07949); assay: Inhibition of RET (unknown origin) at 1 uM relative to control
[17] = biological target: Tyrosine-protein kinase ABL1 (Homo sapiens) (UniProt P00519); assay: Inhibition of Abl1 (unknown origin) at 1 uM relative to control
Tyrosine-protein kinase ABL1 (Homo sapiens), sequence (P00519 whole entry): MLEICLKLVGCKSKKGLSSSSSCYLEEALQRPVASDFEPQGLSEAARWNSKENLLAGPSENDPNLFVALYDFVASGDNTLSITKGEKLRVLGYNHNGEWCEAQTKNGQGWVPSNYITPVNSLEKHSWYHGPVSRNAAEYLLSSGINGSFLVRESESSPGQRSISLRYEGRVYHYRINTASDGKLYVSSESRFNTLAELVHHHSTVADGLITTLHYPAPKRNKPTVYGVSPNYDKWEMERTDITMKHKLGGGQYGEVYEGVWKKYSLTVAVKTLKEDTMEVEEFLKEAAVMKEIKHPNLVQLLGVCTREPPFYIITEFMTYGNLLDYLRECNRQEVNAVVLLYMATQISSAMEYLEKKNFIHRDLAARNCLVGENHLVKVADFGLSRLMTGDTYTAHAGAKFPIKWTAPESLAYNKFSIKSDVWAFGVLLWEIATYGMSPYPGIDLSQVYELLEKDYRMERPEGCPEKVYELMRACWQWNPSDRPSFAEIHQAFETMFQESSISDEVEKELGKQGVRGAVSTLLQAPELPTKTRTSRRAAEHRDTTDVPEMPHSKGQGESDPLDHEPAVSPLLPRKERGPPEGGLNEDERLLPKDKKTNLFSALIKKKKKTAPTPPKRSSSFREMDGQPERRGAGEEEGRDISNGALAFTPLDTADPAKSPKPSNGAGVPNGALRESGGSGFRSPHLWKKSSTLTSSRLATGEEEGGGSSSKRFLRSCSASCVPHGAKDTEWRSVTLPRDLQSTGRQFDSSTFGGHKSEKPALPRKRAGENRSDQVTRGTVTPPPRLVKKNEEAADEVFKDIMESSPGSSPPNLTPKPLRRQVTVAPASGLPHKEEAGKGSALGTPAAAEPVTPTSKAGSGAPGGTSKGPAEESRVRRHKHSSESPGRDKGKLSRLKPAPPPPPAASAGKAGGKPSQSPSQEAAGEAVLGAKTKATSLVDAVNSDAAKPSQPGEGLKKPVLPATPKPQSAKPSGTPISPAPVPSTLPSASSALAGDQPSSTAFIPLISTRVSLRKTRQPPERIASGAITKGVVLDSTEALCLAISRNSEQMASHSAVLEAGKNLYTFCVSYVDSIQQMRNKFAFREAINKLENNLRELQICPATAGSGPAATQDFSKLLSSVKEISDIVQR

[18] = biological target: Receptor-type tyrosine-protein kinase FLT3 (Homo sapiens) (UniProt P36888); assay: Inhibition of FLT3 (unknown origin) at 1 uM relative to control
Receptor-type tyrosine-protein kinase FLT3 (Homo sapiens), sequence (P36888 whole entry): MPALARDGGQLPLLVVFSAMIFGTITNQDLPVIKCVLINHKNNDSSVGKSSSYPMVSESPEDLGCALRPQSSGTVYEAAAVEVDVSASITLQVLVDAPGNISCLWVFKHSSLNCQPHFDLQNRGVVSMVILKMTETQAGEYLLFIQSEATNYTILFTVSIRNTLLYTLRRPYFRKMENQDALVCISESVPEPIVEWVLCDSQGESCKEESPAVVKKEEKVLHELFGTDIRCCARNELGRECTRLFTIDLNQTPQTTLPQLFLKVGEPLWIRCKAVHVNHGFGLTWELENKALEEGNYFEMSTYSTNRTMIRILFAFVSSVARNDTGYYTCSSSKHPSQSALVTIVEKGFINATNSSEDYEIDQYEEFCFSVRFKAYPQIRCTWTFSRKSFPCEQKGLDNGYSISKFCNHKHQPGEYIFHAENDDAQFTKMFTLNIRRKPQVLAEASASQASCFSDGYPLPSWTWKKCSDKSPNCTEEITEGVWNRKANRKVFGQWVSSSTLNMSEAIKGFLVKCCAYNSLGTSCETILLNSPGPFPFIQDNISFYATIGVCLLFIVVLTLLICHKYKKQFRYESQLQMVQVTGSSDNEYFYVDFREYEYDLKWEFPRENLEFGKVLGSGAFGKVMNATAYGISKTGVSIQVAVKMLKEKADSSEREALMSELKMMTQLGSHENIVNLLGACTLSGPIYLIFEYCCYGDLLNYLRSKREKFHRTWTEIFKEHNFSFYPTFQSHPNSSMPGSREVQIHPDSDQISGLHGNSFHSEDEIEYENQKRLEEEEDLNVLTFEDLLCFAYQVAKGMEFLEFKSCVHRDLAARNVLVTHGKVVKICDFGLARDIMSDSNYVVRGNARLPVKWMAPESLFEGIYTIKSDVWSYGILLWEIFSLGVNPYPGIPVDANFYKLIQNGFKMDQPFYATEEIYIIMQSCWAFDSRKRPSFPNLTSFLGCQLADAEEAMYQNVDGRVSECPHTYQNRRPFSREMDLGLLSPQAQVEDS

[19] = physchem; details: octanol/water
[20] = biological target: T2, Serine/threonine-protein kinase BRSK1 (Homo sapiens) (UniProt Q8TDC3); assay: Inhibition of BRSK1 (unknown origin) at 1 uM relative to control
T2 sequence (whole entry): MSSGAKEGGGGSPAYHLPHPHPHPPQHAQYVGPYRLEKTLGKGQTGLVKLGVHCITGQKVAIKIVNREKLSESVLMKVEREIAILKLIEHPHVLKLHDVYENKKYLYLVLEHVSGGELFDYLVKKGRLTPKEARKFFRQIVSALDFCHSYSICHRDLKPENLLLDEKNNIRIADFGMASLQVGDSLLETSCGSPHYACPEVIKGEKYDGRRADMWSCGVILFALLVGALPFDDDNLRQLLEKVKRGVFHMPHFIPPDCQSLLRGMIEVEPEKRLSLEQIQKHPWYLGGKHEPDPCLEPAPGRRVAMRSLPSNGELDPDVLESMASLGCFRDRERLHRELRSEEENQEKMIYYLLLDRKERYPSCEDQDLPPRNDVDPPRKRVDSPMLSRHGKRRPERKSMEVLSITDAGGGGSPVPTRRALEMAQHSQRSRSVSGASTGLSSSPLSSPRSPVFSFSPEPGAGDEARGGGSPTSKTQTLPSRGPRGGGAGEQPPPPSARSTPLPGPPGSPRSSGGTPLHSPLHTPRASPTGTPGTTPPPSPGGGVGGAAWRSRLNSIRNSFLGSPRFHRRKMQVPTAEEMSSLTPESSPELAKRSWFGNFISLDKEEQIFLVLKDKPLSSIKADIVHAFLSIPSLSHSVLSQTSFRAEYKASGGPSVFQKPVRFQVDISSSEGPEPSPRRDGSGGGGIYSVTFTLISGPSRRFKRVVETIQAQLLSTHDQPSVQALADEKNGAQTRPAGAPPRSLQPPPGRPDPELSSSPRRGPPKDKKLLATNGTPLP

[21] = biological target: Dual specificity tyrosine-phosphorylation-regulated kinase 2 (Homo sapiens) (UniProt Q92630); assay: Inhibition of DYRK2 (unknown origin) at 1 uM relative to control
[22] = in vitro; details: human, Caco-2
[23] = biological target: Platelet-derived growth factor receptor beta (Homo sapiens) (UniProt P09619); assay: Inhibition of PDGFRB (unknown origin) at 1 uM relative to control
[24] = biological target: High affinity nerve growth factor receptor (Homo sapiens) (UniProt P04629); assay: Inhibition of TRKA (unknown origin) at 1 uM relative to control
[25] = biological target: Serine/threonine-protein kinase pim-1 (Homo sapiens) (UniProt P11309); assay: Inhibition of PIM1 (unknown origin) at 1 uM relative to control
Serine/threonine-protein kinase pim-1 (Homo sapiens), sequence (P11309 whole entry, looked up): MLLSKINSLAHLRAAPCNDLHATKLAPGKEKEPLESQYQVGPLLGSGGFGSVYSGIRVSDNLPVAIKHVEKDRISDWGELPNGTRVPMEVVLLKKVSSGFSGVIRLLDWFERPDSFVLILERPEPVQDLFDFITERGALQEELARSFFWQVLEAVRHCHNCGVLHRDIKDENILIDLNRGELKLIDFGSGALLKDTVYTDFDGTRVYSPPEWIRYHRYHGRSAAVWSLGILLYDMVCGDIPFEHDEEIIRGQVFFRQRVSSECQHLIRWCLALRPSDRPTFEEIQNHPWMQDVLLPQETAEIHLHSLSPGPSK

[26] = biological target: Cyclin-dependent kinase 2 (Homo sapiens) (UniProt P24941); assay: Inhibition of CDK2 (unknown origin) at 1 uM relative to control
[27] = biological target: Ribosomal protein S6 kinase alpha-1 (Homo sapiens) (UniProt Q15418); assay: Inhibition of RSK1 (unknown origin) at 1 uM relative to control
[28] = biological target: Dual specificity tyrosine-phosphorylation-regulated kinase 1A (Homo sapiens) (UniProt Q13627); assay: Inhibition of DYRK1A (unknown origin) at 1 uM relative to control
[29] = biological target: Interleukin-1 receptor-associated kinase 1 (Homo sapiens) (UniProt P51617); assay: Inhibition of IRAK1 (unknown origin) at 1 uM relative to control
[30] = biological target: 5'-AMP-activated protein kinase subunit beta-1 (Homo sapiens) (UniProt Q9Y478); assay: Inhibition of AMPKB1 (unknown origin) at 1 uM relative to control
[31] = biological target: Rho-associated protein kinase 1 (Homo sapiens) (UniProt Q13464); assay: Inhibition of ROCK1 (unknown origin) at 1 uM relative to control
[32] = biological target: Dual specificity protein kinase CLK1 (Homo sapiens) (UniProt P49759); assay: Inhibition of CLK1 (unknown origin) at 1 uM relative to control
[33] = biological target: 5'-AMP-activated protein kinase catalytic subunit alpha-1 (Homo sapiens) (UniProt Q13131); assay: Inhibition of AMPKA1 (unknown origin) at 1 uM relative to control
[34] = biological target: Platelet-derived growth factor receptor alpha (Homo sapiens) (UniProt P16234); assay: Inhibition of PDGFRA (unknown origin) at 1 uM relative to control
[35] = biological target: 5'-AMP-activated protein kinase subunit gamma-1 (Homo sapiens) (UniProt P54619); assay: Inhibition of AMPKG1 (unknown origin) at 1 uM relative to control
5'-AMP-activated protein kinase subunit gamma-1 (Homo sapiens), sequence (P54619 whole entry): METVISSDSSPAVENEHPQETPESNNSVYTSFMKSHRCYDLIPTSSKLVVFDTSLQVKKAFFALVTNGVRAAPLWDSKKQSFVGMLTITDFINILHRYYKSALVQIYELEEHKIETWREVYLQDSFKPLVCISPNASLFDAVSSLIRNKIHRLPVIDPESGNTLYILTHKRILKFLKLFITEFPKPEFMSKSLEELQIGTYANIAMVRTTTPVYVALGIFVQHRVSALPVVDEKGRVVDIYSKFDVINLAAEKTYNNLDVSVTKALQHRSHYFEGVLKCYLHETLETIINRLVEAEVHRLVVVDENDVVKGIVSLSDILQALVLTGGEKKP

[36] = biological target: Calcium/calmodulin-dependent protein kinase type II subunit alpha (Homo sapiens) (UniProt Q9UQM7); assay: Inhibition of CAMK2A (unknown origin) at 1 uM relative to control
[37] = biological target: Serine/threonine-protein kinase B-raf (Homo sapiens) (UniProt P15056); assay: Inhibition of BRAF (unknown origin) at 1 uM relative to control
[38] = biological target: Dual specificity mitogen-activated protein kinase kinase 2 (Homo sapiens) (UniProt P36507); assay: Inhibition of MEK2 (unknown origin) at 1 uM relative to control
[39] = biological target: Aurora kinase A (Homo sapiens) (UniProt O14965); assay: Inhibition of aurora A (unknown origin) at 1 uM relative to control
[40] = biological target: Tyrosine-protein kinase Yes (Homo sapiens) (UniProt P07947); assay: Inhibition of YES1 (unknown origin) at 1 uM relative to control
[41] = biological target: Tyrosine-protein kinase Lck (Homo sapiens) (UniProt P06239); assay: Inhibition of LCK (unknown origin) at 1 uM relative to control

MAP kinase-interacting serine/threonine-protein kinase 2, sequence (Q9HBH9 whole entry): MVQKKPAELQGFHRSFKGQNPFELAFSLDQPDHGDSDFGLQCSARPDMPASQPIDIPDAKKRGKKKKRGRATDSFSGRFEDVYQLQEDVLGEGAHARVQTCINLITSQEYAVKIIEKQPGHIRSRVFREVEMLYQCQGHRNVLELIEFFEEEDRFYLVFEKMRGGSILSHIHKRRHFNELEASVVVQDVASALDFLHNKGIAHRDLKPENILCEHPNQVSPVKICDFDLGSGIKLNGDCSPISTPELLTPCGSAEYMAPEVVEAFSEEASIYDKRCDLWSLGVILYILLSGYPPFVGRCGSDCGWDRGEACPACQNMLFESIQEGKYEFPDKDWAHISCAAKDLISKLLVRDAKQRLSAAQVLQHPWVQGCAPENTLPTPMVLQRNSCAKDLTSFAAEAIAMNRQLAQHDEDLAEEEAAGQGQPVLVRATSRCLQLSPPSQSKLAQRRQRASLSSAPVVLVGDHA

IC50 [1]: 45 nM
IC50 [2]: 28000 nM
IC50 [7]: 28 nM
SMILES: CC1NC(=O)c2ccc(Nc3ccncn3)cc21 (stereo not given)

IC50 [7]: 3800 nM
SMILES: c1ccc(-c2n[nH]c3ccc(-c4ccncc4)cc23)cc1

IC50 [7]: 690 nM
SMILES: NC(=O)c1ccc(Nc2ccncn2)cc1

IC50 [7]: 3000 nM
SMILES: NC(=O)c1ccc(Nc2ccncn2)c(=O)[nH]1

IC50 [1]: 7.8 nM
inhibition [23]: 17%
inhibition [24]: 17%
IC50 [2]: 120 nM
inhibition [25]: 17%
EC50 [12]: 210 nM
inhibition [26]: 17%
inhibition [27]: 17%
inhibition [28]: 17%
inhibition [29]: 17%
EC50 [13]: 310 nM
inhibition [30]: 17%
inhibition [31]: 17%
inhibition [32]: 17%
IC50 [7]: 1.5 nM
inhibition [14]: 17%
inhibition [33]: 17%
EC50 [15]: 590 nM
inhibition [34]: 17%
inhibition [18]: 17%
inhibition [35]: 17%
inhibition [36]: 17%
inhibition [37]: 17%
inhibition [38]: 17%
SMILES: N[C@H]1C[C@H](Oc2ccc3ncc(-c4ccc5cnccc5c4)n3n2)C1

IC50 [7]: 23 nM
SMILES: O=C1NCc2cc(Nc3ncnc4[nH]cnc34)ccc21

IC50 [7]: 1800 nM
SMILES: c1cnn2c(-c3ccncc3)cnc2c1

IC50 [7]: 6400 nM
SMILES: NC(=O)c1cccn2c(-c3cccnc3)cnc12

Further lines, the compound ahead of its results:

SMILES: Nc1ncnc(Nc2cc(Cl)c3n(c2=O)C2(CCCCC2)NC3=O)c1Cl
IC50 [1]: 0.36 nM
IC50 [2]: 0.084 nM

SMILES: Cc1cc(Nc2cc(N)ncn2)c(=O)n2c1C(=O)NC21CCC(F)(F)CC1
remaining at 0.5 h, 1 µM [3]: 99%
bioavailability [4]: 58%
bioavailability [5]: 85%
remaining at 0.5 h, 1 µM [6]: 100%
IC50 [7]: 1.4 nM
bioavailability [8]: 56%
bioavailability [9]: > 100%
remaining at 0.5 h, 1 µM [10]: 97%
inhibition [11]: 68%

SMILES: CC1(C)NC(=O)c2ccc(Nc3cc(NC(=O)C4CC4)ncn3)c(=O)n21
EC50 [12]: > 30000 nM
EC50 [13]: > 30000 nM
inhibition [14]: 4%
EC50 [15]: > 30000 nM
inhibition [16]: 4%
inhibition [17]: 4%
inhibition [18]: 4%

SMILES: c1cc(-c2cc(C3CCNCC3)[nH]n2)ccn1
IC50 [7]: 5500 nM

SMILES: Cc1n[nH]c(C)c1-c1ccc(C2CCCN2)cc1 (stereo not given)
IC50 [7]: 4700 nM

SMILES: NC(=O)c1ccc(Nc2ncnc3[nH]cnc23)cc1
IC50 [7]: 60 nM

SMILES: CC1(C)NC(=O)c2ccc(Nc3ccncn3)cc21
IC50 [1]: 61 nM
IC50 [2]: 4400 nM
IC50 [7]: 100 nM

SMILES: CC1(C)NC(=O)c2c(Cl)cc(Nc3cc(N)ncn3)c(=O)n21
remaining at 0.5 h, 1 µM [3]: 95%
bioavailability [4]: 54%
bioavailability [5]: 79%
logP [19]: 1.8
remaining at 0.5 h, 1 µM [6]: 100%
bioavailability [8]: 50%
inhibition [14]: 74%
bioavailability [9]: > 100%
inhibition [20]: 52%
remaining at 0.5 h, 1 µM [10]: 100%
inhibition [11]: 88%
inhibition [21]: 67%
Papp A→B at 2 h, 5 µM [22]: 0.9 ×10⁻⁶ cm/s

SMILES: O=C1NCc2cc(Nc3cc(NC(=O)C4CC4)ncn3)ccc21
IC50 [1]: 5.7 nM
IC50 [2]: 430 nM
IC50 [7]: 1.9 nM

SMILES: CC1(c2cccc(Cl)c2)NC(=O)c2c(Cl)cc(Nc3cc(NC(=O)C4CC4)ncn3)c(=O)n21 (stereo not given)
inhibition [23]: 10%
EC50 [12]: 2700 nM
inhibition [28]: 10%
EC50 [13]: 2800 nM
inhibition [39]: 10%
inhibition [40]: 10%
inhibition [14]: 10%
inhibition [16]: 10%
inhibition [34]: 10%
inhibition [17]: 10%
inhibition [18]: 10%
inhibition [41]: 10%
